Experimental data as given in EP0288563B1, “CYCLIC AMINE DERIVATIVES” (Eisai Co., Ltd., priority 1986, dated 1988).
Structures can show the parent of a compound that is named as a salt.

Assays:
[1] = system: nerve cells in the CAI region of the hippocampus; test: Effect of protecting cells from disorder after ischemia (nerve cell count in hippocampus); assay type: in vivo, Mongolian gerbils; details: counted after one week, normal group 287 ± 6, control group 21 ± 10
Procedure: Carotid arteries on both sides of Mongolian gerbils were blocked to realize cerebral ischemia for 5 min. As a result, the nerve cells in the CAI region of the hippocampus disappeared extensively [Karino, T.: Brain Res., 239, 57 to 69 (1982)].
The compound of the present invention was administered orally to them, while a 5% acacia suspension was administered to the control group. After one hour, the ischemia was realized for 5 min. After one week, the animal was perfused and fixed with 4% neutral formalin transcardially. The treated sample was embedded in paraffin and cut to obtain slices having a thickness of 3 µm. The slices were dyed with hematoxylin-eosin and the number of the nerve cells in the CAI region of the hippocampus of each slice was counted.
The nerve cell density in the CAI region of the hippocampus was 287/mm in the normal (pseudo-operation) group and that of the control group was as small as 21/mm. Namely, a serious disappearance of the cell was caused by the 5-min ischemia. […]

[2] = system: ischemic brain; test: Effect of protecting ischemic brain (survival time after ligation of both carotid arteries); assay type: in vivo, ICR mice; details: for Average survival time (min) (average ± S.E.): maximum 6 h, control group 149.9 ± 25.8; for %: survival time relative to control group (100)
Procedure: Carotid arteries of both sides of ICR mice (6 to 8 weeks old) were exposed under halothane anesthesia and ligated. The mice thus treated had stroke symptoms such as jumping, rolling and convulsion and almost all of them died within 24 h.
The compound of the present invention was administered orally to the mice one hour before the ligation and the survival time (maximum: 6 h) was examined as an index of the effect of protecting eschemic brain. In this experiment, the compound was used in the form of a 5% suspension in acacia and a 5% acacia solution was given to the control group.

[3] = 10 mg/kg p.o. one hour before 5-min ischemia
[4] = 30 mg/kg p.o. one hour before 5-min ischemia
[5] = 3 mg/kg p.o. one hour before ligation
[6] = 10 mg/kg p.o. one hour before ligation
[7] = 30 mg/kg p.o. one hour before ligation

Row | SMILES | Nerve cell density (number/mm) ([1]; 3 mg/kg p.o. one hour before 5-min ischemia) | Nerve cell density (number/mm) [1, 3] [number/mm] | Nerve cell density (number/mm) [1, 4] [number/mm] | Average survival time (min) (average ± S.E.) [2, 5] | Average survival time (min) (average ± S.E.) [2, 6] | Average survival time (min) (average ± S.E.) [2, 7] | % ([2]; 3 mg/kg p.o.) [%] | % ([2]; 10 mg/kg p.o.) [%] | % ([2]; 30 mg/kg p.o.) [%]
1 | O=C(CN1CCC(C(=O)c2ccc(F)cc2)CC1)c1ccc2ccccc2c1 [Example 12, 2-[4-p-Fluorobenzoyl)piperidinyl]-2'-acetonaphthone hydrochloride] | 62 ± 26 | 75 ± 32 | 83 ± 32 | 213.7 ± 52.3 | 181.4 ± 43.6 | 191.1 ± 54.3 | 143 | 121 | 128
2 | c1ccc(CC2CCN(CCc3ccc4ccccc4c3)CC2)cc1 [Example 73] |  | 69 ± 21 | 49 ± 8 |  | 150.4 ± 57.6 | 275.2 ± 58.2 |  | 100 | 184
3 | O=C(CN1CCC(=Cc2ccc(F)cc2)CC1)c1ccc2ccccc2c1 [Example 74] |  |  | 62 ± 5 | 143.3 ± 39.6 | 205.1 ± 43.6 | 194.2 ± 49.7 | 96 | 137 | 130
